This note sets out measurements from PubChem BioAssay (NCI).

Among the test systems are EKVX NSCLC; RXF 393 renal; NCI-H23 lung; HOP-92 NSCLC; SK-MEL-5 melanoma; SK-MEL-28 melanoma; COLO 205 colon; IGROV1 ovarian; HCT-116 colon; PC-3 prostate.
What all share (experiment): NCI tumour cell line growth inhibition, 48 h

Structures are written as SMILES.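 How tested: cells in 96-well plates exposed to compound for 48 hours at five concentrations. GI50: concentration for 50% inhibition of growth. The concentration for full growth arrest is given as TGI.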

Take `Cc1ccc(-c2cc(-c3ccco3)c(C#N)c(=S)[nH]2)cc1`: the TGI in the test with EKVX NSCLC is greater than 100 µM; with RXF 393 renal it was greater than 100 µM; with NCI-H23 lung, 97.8 µM; in the test on HOP-92 NSCLC it was greater than 100 µM; in the test with SK-MEL-5 melanoma, 61.9 µM; in the test with SK-MEL-28 melanoma it was greater than 100 µM. Moreover, the TGI in the test with COLO 205 colon, in the test on IGROV1 ovarian, in the test with HCT-116 colon and with PC-3 prostate was greater than 100 µM in each case.
Regarding `CC(C)C(Br)CCC1=CCC(Br)(Br)C1` (centres undefined), the TGI in the test on EKVX NSCLC was determined as 32.5 µM; in the test on RXF 393 renal, 29 µM; in the test with NCI-H23 lung it was 21.5 µM; in the test with HOP-92 NSCLC, 19.5 µM; with SK-MEL-5 melanoma, 18.3 µM; in the test on SK-MEL-28 melanoma it was 29 µM. In addition, the TGI with COLO 205 colon turned out to be 29.6 µM; in the test with IGROV1 ovarian it was 10.8 µM; in the test on HCT-116 colon it was 27.9 µM; in the test with PC-3 prostate, 28.5 µM.
For the molecule `COc1ccc(C)cc1N1C(=O)C2ON(Cc3ccc(CC(N)=O)cc3)C(c3c4ccccc4c(Cl)c4ccccc34)C2C1=O` (centres undefined), the TGI in the test on EKVX NSCLC was 98 µM; in the test on RXF 393 renal, 33.7 µM; in the test on NCI-H23 lung, 96.4 µM; with HOP-92 NSCLC it was greater than 100 µM; in the test with SK-MEL-28 melanoma, greater than 100 µM; in the test on IGROV1 ovarian, greater than 100 µM. Besides, the figures for the TGI in the test on HCT-116 colon and with PC-3 prostate were 32.7 µM and greater than 100 µM, respectively.
Consider `CC1CC(N2CCOCC2)=Nc2ccccc2N1C` (centres undefined), for which the TGI with EKVX NSCLC, in the test with RXF 393 renal, in the test with NCI-H23 lung, in the test with SK-MEL-5 melanoma, with SK-MEL-28 melanoma and in the test on COLO 205 colon was greater than 100 µM each time. Besides, the TGI in the test on IGROV1 ovarian, in the test on HCT-116 colon and with PC-3 prostate was greater than 100 µM in each case.
Consider `O=C(c1ccco1)N(C(=O)N1CCCCC1)c1ccccc1`, for which the TGI in the test with EKVX NSCLC, in the test with RXF 393 renal, in the test on NCI-H23 lung, in the test on SK-MEL-5 melanoma, in the test with SK-MEL-28 melanoma and in the test on COLO 205 colon was greater than 100 µM throughout. For the same molecule, the TGI in the test with IGROV1 ovarian, in the test with HCT-116 colon and in the test with PC-3 prostate was greater than 100 µM each time.
`CN(/N=C1\C(=O)Nc2ccccc21)c1ccccc1`: the TGI in the test with EKVX NSCLC, with NCI-H23 lung, in the test on HOP-92 NSCLC, in the test on SK-MEL-5 melanoma, in the test on SK-MEL-28 melanoma and with IGROV1 ovarian was greater than 100 µM in each case. Also, the TGI in the test with HCT-116 colon and in the test on PC-3 prostate was greater than 100 µM throughout.
For `S=C(Cc1ccc2c(c1)Sc1ccccc1O2)N1CCOCC1`, the TGI in the test with EKVX NSCLC, with RXF 393 renal, with NCI-H23 lung, with HOP-92 NSCLC, in the test on SK-MEL-28 melanoma and in the test with COLO 205 colon was greater than 100 µM in each case. Further, the TGI with IGROV1 ovarian, in the test with HCT-116 colon and in the test on PC-3 prostate was greater than 100 µM throughout.
With `CCOC(=O)c1c(N2CCCC2)[nH]c(=O)c(C(c2ccc(OC)cc2)c2c(O)c(C(=O)OCC)c(N3CCCC3)[nH]c2=O)c1O`, the TGI is greater than 100 µM in the test with EKVX NSCLC; greater than 100 µM in the test on RXF 393 renal; greater than 100 µM with NCI-H23 lung; 58.6 µM in the test with HOP-92 NSCLC; greater than 100 µM in the test with SK-MEL-5 melanoma; greater than 100 µM in the test on SK-MEL-28 melanoma. The TGI in the test on COLO 205 colon, in the test on HCT-116 colon and with PC-3 prostate was greater than 100 µM throughout.
In the case of `O=C1C=CC2(O[C@H](c3ccccc3)[C@@H](c3ccccc3)O2)[C@H](Sc2ccccc2O)C1`, the TGI turned out to be 3.31 µM in the test with EKVX NSCLC; 0.524 µM in the test on RXF 393 renal; 2.39 µM in the test with NCI-H23 lung; 1.32 µM with HOP-92 NSCLC; 2.22 µM with SK-MEL-5 melanoma; 1.62 µM with COLO 205 colon. Further, the TGI with IGROV1 ovarian is 0.593 µM; in the test with HCT-116 colon, 0.309 µM; with PC-3 prostate, 2.06 µM.
For `N#Cc1c(-c2ccc([N+](=O)[O-])cc2)cc(-c2ccc(Nc3ccnc4cc(Cl)ccc34)cc2)[nH]c1=O`, the TGI with EKVX NSCLC, with RXF 393 renal, with NCI-H23 lung, in the test on HOP-92 NSCLC, in the test on SK-MEL-28 melanoma and with COLO 205 colon was greater than 100 µM each time. The TGI in the test with IGROV1 ovarian, in the test with HCT-116 colon and in the test with PC-3 prostate was greater than 100 µM each time.
As to `COc1cc2nc(-c3ccc(Cl)cc3)cc(OCCCN3CCOCC3)c2cc1OC`, the GI50 is 1.73 µM with EKVX NSCLC; 1.12 µM with RXF 393 renal; 1.36 µM in the test with HOP-92 NSCLC; 0.99 µM with IGROV1 ovarian; 1.59 µM in the test with HCT-116 colon; 2.63 µM in the test with PC-3 prostate. Also, the TGI with EKVX NSCLC is greater than 100 µM; with RXF 393 renal, 3.79 µM; with HOP-92 NSCLC, 5.17 µM; with IGROV1 ovarian, greater than 100 µM; in the test on HCT-116 colon it was greater than 100 µM; with PC-3 prostate it was greater than 100 µM.
Regarding `CN(C)CCn1c(=O)c2ccc(NCCCN(C)CCCNc3ccc4c(=O)n(CCN(C)C)c(=O)n5c6ccc(O)cc6c(=O)c3c45)c3c(=O)c4cc(O)ccc4n(c1=O)c23`, the TGI with EKVX NSCLC turned out to be 0.929 µM; in the test on RXF 393 renal it was 0.215 µM; in the test with NCI-H23 lung, 0.226 µM; with SK-MEL-5 melanoma it was 0.171 µM; with SK-MEL-28 melanoma, 1.19 µM; in the test with COLO 205 colon it was 0.187 µM. The TGI with IGROV1 ovarian is 0.392 µM; in the test on HCT-116 colon it was 0.49 µM; in the test with PC-3 prostate it was 0.31 µM.
As to `NCCN1CCCCCc2ccccc21`, the TGI with EKVX NSCLC, in the test with RXF 393 renal, with NCI-H23 lung, with SK-MEL-5 melanoma, with SK-MEL-28 melanoma and with COLO 205 colon was greater than 10 µM in each case. Also, the TGI in the test with IGROV1 ovarian, in the test on HCT-116 colon and with PC-3 prostate was greater than 10 µM throughout.
In the case of `O=c1[nH]c(NCc2ccncc2)nc2nc[nH]c12`, the TGI in the test on EKVX NSCLC, with RXF 393 renal, in the test on NCI-H23 lung, in the test with HOP-92 NSCLC, in the test with SK-MEL-5 melanoma and in the test with COLO 205 colon was greater than 100 µM throughout. Moreover, the TGI in the test on IGROV1 ovarian, in the test with HCT-116 colon and with PC-3 prostate was greater than 100 µM in each case.
